In US8927500B2, “Peptidomimetic macrocycles” (Aileron Therapeutics, Inc., priority 2012, dated 2015):
Where a SMILES comes first, the peptide text is derived from it. Bridges are numbered along the chain shown (N, C = ends). [ ]: non-standard residue; d: D form. Phe(4-COOH) = N[C@@H](Cc1ccc(C(=O)O)cc1)C(=O)O; Phe(3,4-F2) = N[C@@H](Cc1ccc(F)c(F)c1)C(=O)O; R8 = C=CCCCCCC[C@@](C)(N)C(=O)O; Cba = N[C@@H](CC1CCC1)C(=O)O; S5 = C=CCCC[C@](C)(N)C(=O)O; Nle = CCCC[C@H](N)C(=O)O

Legend:
MDMX = biological target: T1, MDMX (Homo sapiens, UniProt O15151); experiment: Competitive fluorescence polarization assay for MDMX; format: binding; conditions: competitive FP assay; for IC50: read-out: IC50 (MDMX); for Ki: read-out: Ki (MDMX)
T1 sequence (O15151 1-125): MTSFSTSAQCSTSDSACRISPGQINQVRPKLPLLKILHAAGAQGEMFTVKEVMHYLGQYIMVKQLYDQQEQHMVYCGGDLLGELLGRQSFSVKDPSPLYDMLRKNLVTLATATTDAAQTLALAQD

MDM2 = MDM2 (Homo sapiens, UniProt Q00987); experiment: Competitive fluorescence polarization assay for MDM2; format: binding; conditions: competitive FP assay, MDM2; for IC50: read-out: IC50 (MDM2); for Ki: read-out: Ki (MDM2)
Chain of MDM2 (Q00987 1-125): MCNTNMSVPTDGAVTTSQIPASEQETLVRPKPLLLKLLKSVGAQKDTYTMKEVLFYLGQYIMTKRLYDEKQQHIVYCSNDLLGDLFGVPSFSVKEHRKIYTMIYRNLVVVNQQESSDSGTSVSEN

[1] = Circular dichroism (CD) analysis of alpha-helicity; format: physicochemical
Method: To assay the helicity of peptidomimetic macrocycles, the compounds are dissolved in an aqueous solution (e.g. 50 mM potassium phosphate solution at pH 7, or distilled H2O, to concentrations of 25-50 μM). Circular dichroism (CD) spectra are obtained on a spectropolarimeter (e.g., Jasco J-710) using standard measurement parameters (e.g. temperature, 20° C.; wavelength, 190-260 nm; step resolution, 0.5 nm; speed, 20 nm/sec; accumulations, 10; response, 1 sec; bandwidth, 1 nm; path length, 0.1 cm). […] A Peltier temperature controller was used to maintain temperature control of the optical cell. Results are expressed as mean molar ellipticity [0] […] Peptide concentrations were determined by amino acid analysis. Stock solutions of peptides were prepared in benign CD buffer (20 mM phosphoric acid, pH 2). The stocks were used to prepare peptide solutions of 0.05 mg/ml in either benign CD buffer or CD buffer with 50% trifluoroethanol (TFE) for analyses in a 10 mm pathlength cell. […] The average of six scans was reported.

SJSA-1 cells = experiment: Cell lysis by peptidomimetic macrocycles (LDH release); format: cell-based; conditions: 1 h at 37C
Caspase 3 = Caspase 3 detection assay in SJSA1 cells; format: cell-based; conditions: 48 h, Caspase 3 activation over DMSO-treated cells; for caspase 0.3 uM: 0.3 uM peptide; for caspase 3 uM: 3 uM peptide; for caspase 10 uM: 10 uM peptide; for caspase 30 uM: 30 uM peptide; for caspase 1 uM: 1 uM peptide

Row | SMILES | IC50 (MDMX) [µM] | Ki (MDMX) [µM] | IC50 (MDM2) [µM] | Ki (MDM2) [µM] | % Helix 50% TFE compared to 50% TFE parent (CD) ([1]; 50% TFE) [%] | Molar Ellipticity 50% TFE (222 in 50% TFE) ([1]; CD buffer with 50% TFE, 222 nm, 4° C.) [deg cm2 dmol-1] | Molar Ellipticity Benign (222 in 0% TFE) ([1]; benign CD buffer pH 2, 0% TFE, 222 nm, 4° C.) [deg cm2 dmol-1] | % Helix benign compared to 50% TFE parent (CD) ([1]; benign buffer) [%] | Molar Ellipticity TFE-Molar Ellipticity Benign ([1]; difference 50% TFE minus benign) [deg cm2 dmol-1] | 6.25 uM % Lysed cells (1 h LDH) (SJSA-1 cells) [%] | 25 uM % Lysed cells (1 h LDH) (SJSA-1 cells) [%] | 50 uM % Lysed cells (1 h LDH) (SJSA-1 cells) [%] | caspase 0.3 uM (Caspase 3) | caspase 3 uM (Caspase 3) | caspase 10 uM (Caspase 3) | caspase 30 uM (Caspase 3) | caspase 1 uM (Caspase 3)
1 | CCCC[C@H](NC(=O)[C@H](CCC(N)=O)NC(=O)[C@H](CCC(N)=O)NC(=O)[C@]1(C)CCCC=CCCCCCC[C@@](C)(NC(=O)[C@H](Cc2ccccc2)NC(C)=O)C(=O)N[C@@H](C)C(=O)N[C@@H](Cc2ccc(O)cc2)C(=O)N[C@@H](Cc2c[nH]c3ccccc23)C(=O)N[C@@H]([C@@H](C)O)C(=O)N[C@@H](C)C(=O)N[C@@H](CC(C)C)C(=O)N1)C(=O)N[C@@H](C(N)=O)C(C)C [compound 41] (Ac-F[R8]AYWTAL[S5]QQ[Nle][dV]-NH2; staple 2-9) | 0.01 to 0.1 | 0.01 to 0.1 | 0.1 to 1 | 0.01 to 0.1 | 136 | −21319.4 | −909 | 5.8 | 20410.4 | – | – | – | – | – | – | – | –
2 | CCCC[C@H](NC(=O)[C@H](C)NC(=O)[C@H](C)NC(=O)[C@]1(C)CCCC=CCCCCCC[C@@](C)(NC(=O)[C@H](Cc2ccccc2)NC(=O)[C@@H](NC(=O)[C@H](CCC(=O)O)NC(C)=O)[C@@H](C)O)C(=O)N[C@@H](C)C(=O)N[C@@H](Cc2ccc(O)cc2)C(=O)N[C@@H](Cc2c[nH]c3ccccc23)C(=O)N[C@@H](C)C(=O)N[C@@H](CCC(N)=O)C(=O)N[C@@H](CC2CCC2)C(=O)N1)C(=O)N[C@@H](C)C(N)=O [compound 237] (Ac-ETF[R8]AYWAQ[Cba][S5]AA[Nle]A-NH2; staple 4-11) | 0.1 to 1 | 0.01 to 0.1 | 0.01 to 0.1 | < 0.01 | – | – | – | – | – | 0 | 7 | 55 | 1 | 5 | 9 | 15 | –
3 | CCCC[C@H](NC(=O)[C@H](C)NC(=O)[C@H](CO)NC(=O)[C@]1(C)CCCC=CCCCCCC[C@@](C)(NC(=O)[C@H](Cc2ccc(F)c(F)c2)NC(=O)[C@@H](NC(=O)[C@H](CC(C)C)NC(C)=O)[C@@H](C)O)C(=O)N[C@@H](CCC(=O)O)C(=O)N[C@@H](Cc2ccc(O)cc2)C(=O)N[C@@H](Cc2c[nH]c3ccccc23)C(=O)N[C@@H](C)C(=O)N[C@@H](CCC(N)=O)C(=O)N[C@@H](CC2CCC2)C(=O)N1)C(=O)N[C@@H](C)C(N)=O [compound 243] (Ac-LT[Phe(3,4-F2)][R8]EYWAQ[Cba][S5]SA[Nle]A-NH2; staple 4-11) | 0.01 to 0.1 | 0.01 to 0.1 | 0.01 to 0.1 | < 0.01 | – | – | – | – | – | 4 | 39 | 64 | 1 | 2 | 5 | 23 | –
4 | CCCC[C@H](NC(=O)[C@H](C)NC(=O)[C@H](CO)NC(=O)[C@]1(C)CCCC=CCCCCCC[C@@](C)(NC(=O)[C@H](Cc2ccccc2)NC(=O)[C@@H](NC(=O)[C@H](CC(C)C)NC(C)=O)[C@@H](C)O)C(=O)N[C@@H](CCC(=O)O)C(=O)N[C@@H](Cc2ccc(C(=O)O)cc2)C(=O)N[C@@H](Cc2c[nH]c3ccccc23)C(=O)N[C@@H](C)C(=O)N[C@@H](CCC(N)=O)C(=O)N[C@@H](CC2CCC2)C(=O)N1)C(=O)N[C@@H](C)C(N)=O [compound 244] (Ac-LTF[R8]E[Phe(4-COOH)]WAQ[Cba][S5]SA[Nle]A-NH2; staple 4-11) | 0.01 to 0.1 | < 0.01 | 0.01 to 0.1 | < 0.01 | – | – | – | – | – | 0 | 0 | 4 | 1 | 2 | 7 | 17 | –
5 | CCCC[C@H](NC(=O)[C@H](C)NC(=O)[C@H](CO)NC(=O)[C@]1(C)CCCC=CCCCCCC[C@@](C)(NC(=O)[C@H](Cc2ccccc2)NC(=O)[C@@H](NC(=O)[C@H](CC(C)C)NC(C)=O)[C@@H](C)O)C(=O)N[C@@H](CCC(=O)O)C(=O)N[C@@H](Cc2ccc(O)cc2)C(=O)N[C@@H](Cc2c[nH]c3ccccc23)C(=O)N[C@@H](CO)C(=O)N[C@@H](CCC(N)=O)C(=O)N[C@@H](CC2CCC2)C(=O)N1)C(=O)N[C@@H](C)C(N)=O [compound 245] (Ac-LTF[R8]EYWSQ[Cba][S5]SA[Nle]A-NH2; staple 4-11) | 0.01 to 0.1 | 0.01 to 0.1 | 0.01 to 0.1 | < 0.01 | – | – | – | – | – | 1 | 11 | 56 | 1 | 3 | 9 | 16 | –
6 | CC[C@H](C)[C@H](NC(=O)[C@H](C)NC(=O)[C@H](C)NC(=O)[C@]1(C)CCCC=CCCCCCC[C@@](C)(NC(=O)[C@H](Cc2ccccc2)NC(=O)[C@@H](NC(=O)[C@H](CC(C)C)NC(C)=O)[C@@H](C)O)C(=O)N[C@@H](CCC(=O)O)C(=O)N[C@@H](Cc2ccc(O)cc2)C(=O)N[C@@H](Cc2c[nH]c3ccccc23)C(=O)N[C@@H](C)C(=O)N[C@@H](CCC(N)=O)C(=O)N[C@@H](CC2CCC2)C(=O)N1)C(=O)N[C@H](C)C(N)=O [compound 247] (Ac-LTF[R8]EYWAQ[Cba][S5]AAI[dA]-NH2; staple 4-11) | 0.01 to 0.1 | 0.01 to 0.1 | 0.01 to 0.1 | < 0.01 | – | – | – | – | – | 0 | 0 | 4 | 1 | 3 | 11 | 24 | –
7 | CC[C@H](C)[C@H](NC(=O)[C@H](C)NC(=O)[C@H](C)NC(=O)[C@]1(C)CCC/C=C/CCCCCC[C@@](C)(NC(=O)[C@H](Cc2ccccc2)NC(=O)[C@@H](NC(=O)[C@H](CC(C)C)NC(C)=O)[C@@H](C)O)C(=O)N[C@@H](CCC(=O)O)C(=O)N[C@@H](Cc2ccc(C(=O)O)cc2)C(=O)N[C@@H](Cc2c[nH]c3ccccc23)C(=O)N[C@@H](C)C(=O)N[C@@H](CCC(N)=O)C(=O)N[C@@H](CC2CCC2)C(=O)N1)C(=O)N[C@H](C)C(N)=O [compound 249] (Ac-LTF[R8]E[Phe(4-COOH)]WAQ[Cba][S5]AAI[dA]-NH2; staple (E) 4-11) | 0.01 to 0.1 | < 0.01 | 0.01 to 0.1 | < 0.01 | – | – | – | – | – | 0 | 0 | 0 | 2 | 5 | 11 | 23 | –
8 | CC(=O)N[C@@H](CC(C)C)C(=O)N[C@H](C(=O)N[C@@H](Cc1ccccc1)C(=O)N[C@]1(C)CCCCCC/C=C/CCC[C@@](C)(C(=O)N[C@@H](C)C(=O)N[C@@H](C)C(=O)N[C@@H](C)C(=O)N[C@@H](C)C(=O)N[C@@H](C)C(=O)N[C@H](C)C(N)=O)NC(=O)[C@H](CC2CCC2)NC(=O)[C@H](CCC(N)=O)NC(=O)[C@H](C)NC(=O)[C@H](Cc2c[nH]c3ccccc23)NC(=O)[C@H](Cc2ccc(C(=O)O)cc2)NC(=O)[C@H](CCC(=O)O)NC1=O)[C@@H](C)O [compound 349] (Ac-LTF[R8]E[Phe(4-COOH)]WAQ[Cba][S5]AAAAA[dA]-NH2; staple (E) 4-11) | 0.01 to 0.1 | < 0.01 | < 0.01 | < 0.01 | – | – | – | – | – | 0 | 0 | 0 | 1 | 11 | 16 | 24 | 8
9 | CC(=O)N[C@@H](CC(C)C)C(=O)N[C@H](C(=O)N[C@@H](Cc1ccccc1)C(=O)N[C@]1(C)CCCCCC/C=C/CCC[C@@](C)(C(=O)N[C@@H](C)C(=O)N[C@@H](C)C(=O)N[C@@H](C)C(=O)N[C@@H](C)C(=O)N[C@@H](C)C(=O)N[C@H](C)C(N)=O)NC(=O)[C@H](CC2CCC2)NC(=O)[C@H](CCC(N)=O)NC(=O)[C@H](CO)NC(=O)[C@H](Cc2c[nH]c3ccccc23)NC(=O)[C@H](Cc2ccc(O)cc2)NC(=O)[C@H](CCC(=O)O)NC1=O)[C@@H](C)O [compound 351] (Ac-LTF[R8]EYWSQ[Cba][S5]AAAAA[dA]-NH2; staple (E) 4-11) | 0.01 to 0.1 | < 0.01 | < 0.01 | < 0.01 | – | – | – | – | – | 0 | 0 | 0 | 3 | 13 | 15 | 24 | 9
